Test results reported in patent US20250235472A1, “USE OF 6-PHOSPHOGLUCONIC ACID AND DERIVATIVE THEREOF IN PREPARING MEDICAMENT FOR PREVENTING OR TREATING GLYCOMETABOLISM DISORDER DISEASES” (FUDAN UNIVERSITY, priority 2022, published 2025).

Tests used:
islet β-cells = experiment: Immunofluorescence assay of regeneration of islet β-cells in type 1 diabetes mellitus mice; format: in vivo, mouse; conditions: 200 mg/kg twice daily, compared with the normal saline group, FIG. 5
Description: (§1) • 1. Blood glucose test strips and blood glucose meter, from Eli Lilly and Company, USA; • 2. C57 B6/J Female mice, from Nanjing Gem Pharmaceutical Co., Ltd.; • 3. Streptozotocin, from Sigma-Aldrich Company, USA; • 4. Ultrasensitive insulin kit, from ALPCO Company, USA; • 5. Insulin antibody, from DAKO Company, USA; • 6. Glucagon antibody, from ABCAM Company, USA; and • 7. Other reagents required for immunofluorescence assay were purchased from Shanghai Sangon Technology Co., Ltd.
(§2) An 8-week-old C57B6/J female mouse was administered intraperitoneally with 200 mg/kg of streptozotocin solution. After 5 days of injection, the random blood glucose level of the mice was measured, mice with blood glucose levels higher than 20 mmol/L were selected and randomly divided into two groups for subsequent experiments.
(§3) Type 1 diabetes mellitus mouse models were administered 200 mg/kg of 6-phosphogluconic acid methyl ester (compound 1-1) or physiological saline at 8 a.m. and 8 p.m. everyday. The random blood glucose level of each mouse was measured once a day. Before the end of the experiment, the mice were fasted for 16 hours, and a small amount of peripheral blood was taken from the tail vein.
Immunofluorescence assay was used to measure the regeneration of islet β-cells of type 1 diabetes mellitus mice.

[1] = tested on: type 1 diabetes mellitus mice; experiment: Insulin concentration in peripheral blood measured by ultrasensitive insulin kit; format: in vivo, mouse; conditions: 200 mg/kg twice daily; fasted for 16 hours; compared with the normal saline group; FIG. 6
Description: as §1, §2, §3
The concentration of insulin in peripheral blood of mice was measured by an ultrasensitive insulin kit.

[2] = tested on: type 1 diabetes mellitus mice; experiment: Random blood glucose level in streptozotocin type 1 diabetes mellitus mouse model; format: in vivo; conditions: 200 mg/kg at 8 a.m. and 8 p.m. everyday; compared with the normal saline group; FIG. 4
Description: as §1, §2, §3

In the case of `COC(=O)[C@H](O)[C@@H](O)[C@H](O)[C@H](O)COP(=O)(O)O` [Compound 1-1, 6-phosphogluconic acid methyl ester], the “number of islet β-cells (regeneration)” value (islet β-cells) is reported as “significantly increased”, the “concentration of fasting insulin in peripheral blood” value [1] is reported as “significantly increased” and the “random blood glucose level” value [2] is reported as “significantly reduced”.
